Assay [1] addresses T1, human Nav1.7 channels (Homo sapiens, UniProt Q15858).
T1 construct: expressed in transfected cells; host or cells: CHO
As to the kind of experiment: FRET assay, human Nav1.7 (EFS on FDSS). Format: cell-based. Conditions: CHO cells expressing human Nav1.7, read-out: IC50 against Nav1.7. A digest of the protocol:
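IC50 was derived from normalized 440 nm fluorescence ratios of the EFS-evoked membrane-potential response read on FDSS. Recombinant CHO cells were sequentially dye-loaded with coumarin/oxonol FRET pair at room temperature in pH 7.4 buffer before compound addition.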

The target in assay [2] is T2, human Nav1.3 channels (Homo sapiens, UniProt Q9NY46).
T2 construct: expressed in transfected cells; host or cells: HEK293
Briefly: FRET assay, human Nav1.3 (EFS on FDSS). Format: cell-based. To be noted: HEK293 cells expressing human Nav1.3, read-out: IC50 against Nav1.3. A digest of the protocol: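 HEK293 cells expressing the channel, loaded with 10 microM CC2-DMPE then 15 microM DiSBAC2(3) plus 0.555 mM VABSC-1 in pH 7.4 HEPES buffer at room temperature. Membrane potential changes evoked by electrical field stimulation after compound addition; IC50 from 440 nm-normalized FRET ratios.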

Bounds are passed on as bounds.

T1 sequence (Q15858 whole entry): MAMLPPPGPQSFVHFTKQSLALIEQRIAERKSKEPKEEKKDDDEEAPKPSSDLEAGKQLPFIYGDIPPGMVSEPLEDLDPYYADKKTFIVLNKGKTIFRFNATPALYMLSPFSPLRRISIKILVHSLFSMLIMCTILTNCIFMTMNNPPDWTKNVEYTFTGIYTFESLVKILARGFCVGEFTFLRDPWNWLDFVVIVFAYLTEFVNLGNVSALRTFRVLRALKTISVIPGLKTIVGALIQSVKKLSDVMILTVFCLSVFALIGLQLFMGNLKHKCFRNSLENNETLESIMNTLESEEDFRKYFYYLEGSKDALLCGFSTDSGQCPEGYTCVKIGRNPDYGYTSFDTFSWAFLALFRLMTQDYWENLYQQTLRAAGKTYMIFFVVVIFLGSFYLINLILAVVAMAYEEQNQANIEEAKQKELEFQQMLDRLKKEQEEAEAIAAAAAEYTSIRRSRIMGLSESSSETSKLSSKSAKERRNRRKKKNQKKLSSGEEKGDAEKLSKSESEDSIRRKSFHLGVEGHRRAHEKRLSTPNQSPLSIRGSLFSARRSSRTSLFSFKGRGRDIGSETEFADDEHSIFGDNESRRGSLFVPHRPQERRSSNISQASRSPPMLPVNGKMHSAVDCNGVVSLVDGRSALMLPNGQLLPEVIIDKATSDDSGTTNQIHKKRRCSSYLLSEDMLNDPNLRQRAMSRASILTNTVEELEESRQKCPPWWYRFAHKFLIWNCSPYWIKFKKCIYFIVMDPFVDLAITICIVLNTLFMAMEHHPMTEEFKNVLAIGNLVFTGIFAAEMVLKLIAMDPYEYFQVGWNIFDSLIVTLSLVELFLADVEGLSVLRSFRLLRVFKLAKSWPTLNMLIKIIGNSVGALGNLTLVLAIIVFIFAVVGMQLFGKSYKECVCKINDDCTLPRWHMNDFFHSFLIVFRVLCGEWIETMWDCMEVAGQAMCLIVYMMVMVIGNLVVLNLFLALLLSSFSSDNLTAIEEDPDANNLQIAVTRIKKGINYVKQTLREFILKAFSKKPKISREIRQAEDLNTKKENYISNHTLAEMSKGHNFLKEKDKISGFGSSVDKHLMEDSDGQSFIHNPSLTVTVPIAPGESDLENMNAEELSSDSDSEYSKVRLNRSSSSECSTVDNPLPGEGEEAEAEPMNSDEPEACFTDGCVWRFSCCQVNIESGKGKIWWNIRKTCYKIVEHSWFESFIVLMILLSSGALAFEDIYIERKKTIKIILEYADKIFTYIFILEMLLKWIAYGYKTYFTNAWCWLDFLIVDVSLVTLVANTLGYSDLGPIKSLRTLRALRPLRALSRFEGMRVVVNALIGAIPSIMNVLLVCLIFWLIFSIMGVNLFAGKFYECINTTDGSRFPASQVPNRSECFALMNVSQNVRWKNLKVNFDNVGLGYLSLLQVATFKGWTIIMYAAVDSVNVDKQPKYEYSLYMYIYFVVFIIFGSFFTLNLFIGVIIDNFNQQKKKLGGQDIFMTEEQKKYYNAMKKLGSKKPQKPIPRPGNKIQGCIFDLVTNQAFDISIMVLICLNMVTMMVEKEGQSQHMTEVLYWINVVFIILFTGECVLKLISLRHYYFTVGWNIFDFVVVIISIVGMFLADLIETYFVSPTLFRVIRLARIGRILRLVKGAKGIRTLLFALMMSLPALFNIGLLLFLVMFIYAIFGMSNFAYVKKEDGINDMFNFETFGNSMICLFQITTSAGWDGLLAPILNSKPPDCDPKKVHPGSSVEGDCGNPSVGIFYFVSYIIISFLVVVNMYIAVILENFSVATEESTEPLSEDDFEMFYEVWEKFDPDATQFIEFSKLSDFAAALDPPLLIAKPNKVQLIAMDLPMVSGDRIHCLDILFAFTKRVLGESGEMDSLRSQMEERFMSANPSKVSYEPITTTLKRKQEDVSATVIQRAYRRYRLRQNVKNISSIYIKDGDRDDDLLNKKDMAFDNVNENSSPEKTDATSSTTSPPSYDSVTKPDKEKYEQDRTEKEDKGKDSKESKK
T2 sequence (Q9NY46 whole entry): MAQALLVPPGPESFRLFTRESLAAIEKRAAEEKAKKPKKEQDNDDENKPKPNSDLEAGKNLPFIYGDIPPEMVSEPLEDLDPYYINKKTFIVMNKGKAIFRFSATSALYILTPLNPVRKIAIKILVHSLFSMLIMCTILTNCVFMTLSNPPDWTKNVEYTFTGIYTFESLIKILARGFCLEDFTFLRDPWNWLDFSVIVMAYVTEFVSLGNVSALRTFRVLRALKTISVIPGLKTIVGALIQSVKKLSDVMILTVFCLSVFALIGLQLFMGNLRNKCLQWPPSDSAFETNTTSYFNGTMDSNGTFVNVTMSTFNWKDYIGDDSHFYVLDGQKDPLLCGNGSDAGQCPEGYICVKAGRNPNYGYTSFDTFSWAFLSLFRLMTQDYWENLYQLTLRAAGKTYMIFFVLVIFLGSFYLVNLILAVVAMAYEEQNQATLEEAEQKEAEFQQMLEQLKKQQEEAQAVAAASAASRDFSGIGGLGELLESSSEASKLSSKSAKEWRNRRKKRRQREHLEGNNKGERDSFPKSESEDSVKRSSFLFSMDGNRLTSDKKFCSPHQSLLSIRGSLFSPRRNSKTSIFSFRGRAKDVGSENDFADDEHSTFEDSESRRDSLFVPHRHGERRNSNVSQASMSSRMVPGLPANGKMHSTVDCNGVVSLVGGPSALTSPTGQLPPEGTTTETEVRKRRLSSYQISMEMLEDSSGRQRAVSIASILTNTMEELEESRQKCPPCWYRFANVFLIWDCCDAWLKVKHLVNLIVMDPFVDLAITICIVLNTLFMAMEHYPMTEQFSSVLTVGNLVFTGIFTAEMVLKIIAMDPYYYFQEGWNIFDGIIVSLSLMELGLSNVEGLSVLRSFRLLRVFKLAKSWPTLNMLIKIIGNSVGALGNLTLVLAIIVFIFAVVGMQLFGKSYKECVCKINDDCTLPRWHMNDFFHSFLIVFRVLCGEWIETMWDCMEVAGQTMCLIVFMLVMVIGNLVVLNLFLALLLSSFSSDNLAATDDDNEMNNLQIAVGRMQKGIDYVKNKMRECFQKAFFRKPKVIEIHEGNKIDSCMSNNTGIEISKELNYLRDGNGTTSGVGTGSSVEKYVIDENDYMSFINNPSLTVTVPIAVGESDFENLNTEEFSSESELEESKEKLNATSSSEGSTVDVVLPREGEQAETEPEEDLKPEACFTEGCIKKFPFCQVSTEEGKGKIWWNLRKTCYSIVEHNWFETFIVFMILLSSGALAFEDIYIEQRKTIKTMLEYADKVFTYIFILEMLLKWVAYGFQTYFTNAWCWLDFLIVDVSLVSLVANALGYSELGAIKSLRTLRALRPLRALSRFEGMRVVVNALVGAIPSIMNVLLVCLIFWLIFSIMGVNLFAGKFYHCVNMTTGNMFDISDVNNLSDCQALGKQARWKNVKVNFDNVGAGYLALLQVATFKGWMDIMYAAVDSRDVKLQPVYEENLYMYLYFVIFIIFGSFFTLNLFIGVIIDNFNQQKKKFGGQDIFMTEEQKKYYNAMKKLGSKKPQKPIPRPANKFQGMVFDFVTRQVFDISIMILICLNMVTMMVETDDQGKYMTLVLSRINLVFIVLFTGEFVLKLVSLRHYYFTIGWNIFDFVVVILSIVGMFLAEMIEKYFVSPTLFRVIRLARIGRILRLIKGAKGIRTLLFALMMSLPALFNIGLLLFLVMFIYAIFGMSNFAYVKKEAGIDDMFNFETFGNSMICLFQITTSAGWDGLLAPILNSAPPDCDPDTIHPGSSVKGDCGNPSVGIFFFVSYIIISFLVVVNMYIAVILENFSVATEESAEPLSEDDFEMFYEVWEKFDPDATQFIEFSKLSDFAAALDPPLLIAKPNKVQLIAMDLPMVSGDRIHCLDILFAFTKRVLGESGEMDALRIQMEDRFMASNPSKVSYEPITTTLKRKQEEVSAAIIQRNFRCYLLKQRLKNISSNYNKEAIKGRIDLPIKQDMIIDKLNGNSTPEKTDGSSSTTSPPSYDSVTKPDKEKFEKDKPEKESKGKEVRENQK

What is called IC50 is the concentration that inhibits the measured activity by half. As to `CCOc1nc(OCC(F)(F)F)ccc1CNC(=O)c1cc(C)nc(NC(=O)C(C)C)n1` [Example 360, N-((2-ethoxy-6-(2,2,2-trifluoroethoxy)pyridin-3-yl)methyl)-2-isobutyramido-6-methylpyrimidine-4-carboxamide], the concentration for half-maximal inhibition (IC50) in assay [1] and in assay [2] was less than 1 µM in each case.
In the case of `CC(=O)Nc1nc(C)cc(C(=O)NC(C)c2cnc(OCC(F)(F)F)c(C)c2)n1` (single isomer, unassigned) [Example 235, 2-acetamido-6-methyl-N-(1-(5-methyl-6-(2,2,2-trifluoroethoxy)pyridin-3-yl)ethyl)pyrimidine-4-carboxamide], the concentration for half-maximal inhibition (IC50) in assay [1] and in assay [2] was less than 1 µM each time.
In the case of `CCC(=O)Nc1cc(C(=O)NCc2cccc(OC(F)(F)F)c2)ccn1` [Example 523, 2-propionamido-N-(3-(trifluoromethoxy)benzyl)isonicotinamide], the IC50 in assay [1] and in assay [2] was less than 1 µM each time.
`Cc1cc(C(=O)NCc2cnc(OCC(F)(F)C(F)F)c(C)c2)cc(NC(=O)C2CC2)n1` [Example 946, 2-(cyclopropanecarboxamido)-6-methyl-N-((5-methyl-6-(2,2,3,3-tetrafluoropropoxy)pyridin-3-yl)methyl)isonicotinamide]: the 50% inhibitory concentration (IC50) in assay [1] and in assay [2] was less than 1 µM in each case.
Take `O=C(NCc1ccc(OCC(F)(F)F)nc1)c1ccnc(NC(=O)C2CC2)c1` [Example 152, 2-(cyclopropanecarboxamido)-N-((6-(2,2,2-trifluoroethoxy)pyridin-3-yl)methyl)isonicotinamide]: the IC50 in assay [1] and in assay [2] was less than 1 µM in each case.
In the case of `Cc1cc(C(=O)NCc2cc(C(F)(F)F)ccc2F)cc(NC(=O)C2CC2)n1` [Example 975, 2-(cyclopropanecarboxamido)-N-(2-fluoro-5-(trifluoromethyl)benzyl)-6-methylisonicotinamide], the IC50 in assay [1] and in assay [2] was less than 1 µM each time.
With `CC(=O)Nc1nc(C)cc(C(=O)NCc2cnc(OCC(F)(F)F)c(C)c2)n1` [Example 363, 2-acetamido-6-methyl-N-((5-methyl-6-(2,2,2-trifluoroethoxy)pyridin-3-yl)methyl)pyrimidine-4-carboxamide], the IC50 in assay [1] and in assay [2] was less than 1 µM each time.
Regarding `CC(=O)Nc1cc(C(=O)NCc2cc(C)cc(OC(F)(F)F)c2)cc(C)n1` [Example 602, 2-acetamido-6-methyl-N-(3-methyl-5-(trifluoromethoxy)benzyl)isonicotinamide], the IC50 in assay [1] and in assay [2] was less than 1 µM in each case.
Consider `CCC(=O)Nc1cc(C(=O)NCc2ccc(OCC(F)(F)F)nc2OC)ccn1` [Example 149, N-((2-methoxy-6-(2,2,2-trifluoroethoxy)pyridin-3-yl)methyl)-2-propionamidoisonicotinamide], for which the IC50 in assay [1] and in assay [2] was less than 1 µM in each case.
For the compound `CC(=O)Nc1cc(C(=O)NC(C)c2cnc(OCC(F)(F)F)c(C)c2)ccn1` (single isomer, unassigned) [Example 85, 2-acetamido-N-(1-(5-methyl-6-(2,2,2-trifluoroethoxy)pyridin-3-yl)ethyl)isonicotinamide], the 50% inhibitory concentration (IC50) in assay [1] and in assay [2] was less than 1 µM in each case.
Turning to `Cc1cc(C(=O)NC(C)c2cnc(OCC(F)(F)F)c(C)c2)cc(NC(=O)C2CC2)n1` (single isomer, unassigned) [Example 823, 2-(cyclopropanecarboxamido)-6-methyl-N-(1-(5-methyl-6-(2,2,2-trifluoroethoxy)pyridin-3-yl)ethyl)isonicotinamide], the 50% inhibitory concentration (IC50) in assay [1] and in assay [2] was less than 1 µM in each case.
In the case of `CCC(=O)Nc1cc(C(=O)NCc2ccc(OCC(F)(F)F)c(C)c2)cc(C)n1` [Example 793, 2-methyl-N-(3-methyl-4-(2,2,2-trifluoroethoxy)benzyl)-6-propionamidoisonicotinamide], the IC50 in assay [1] and in assay [2] was less than 1 µM each time.
Regarding `CC(=O)Nc1cc(C(=O)NCc2cnc(OCC(F)(F)F)c(Br)c2)cc(C)n1` [Example 899, 2-acetamido-N-((5-bromo-6-(2,2,2-trifluoroethoxy)pyridin-3-yl)methyl)-6-methylisonicotinamide], the half-inhibitory concentration (IC50) in assay [1] and in assay [2] was less than 1 µM in each case.
Take `CCC(=O)Nc1cc(C(=O)NCc2cccc(C(F)(F)F)c2)cc(C)n1` [Example 127, 2-methyl-6-propionamido-N-(3-(trifluoromethyl)benzyl)isonicotinamide]: the concentration for half-maximal inhibition (IC50) in assay [1] and in assay [2] was less than 1 µM throughout.
As to `CCC(=O)Nc1cc(C(=O)NC(C)c2cccc(OCC(F)(F)F)n2)cc(C)n1` (single isomer, unassigned) [Example 139, 2-methyl-6-propionamido-N-(1-(6-(2,2,2-trifluoroethoxy)pyridin-2-yl)ethyl)isonicotinamide], the IC50 in assay [1] and in assay [2] was less than 1 µM each time.
Turning to `Cc1cc(C(C)NC(=O)c2ccnc(NC(=O)C(C)C)c2)cnc1OCC(F)(F)C(F)F` (single isomer, unassigned) [Example 904, 2-isobutyramido-N-(1-(5-methyl-6-(2,2,3,3-tetrafluoropropoxy)pyridin-3-yl)ethyl)isonicotinamide], the IC50 in assay [1] and in assay [2] was less than 1 µM in each case.
Regarding `CCC(=O)Nc1cc(C(=O)NCc2cnc(OCC(F)(F)F)c(Br)c2)ccn1` [Example 895, N-((5-bromo-6-(2,2,2-trifluoroethoxy)pyridin-3-yl)methyl)-2-propionamidoisonicotinamide], the IC50 in assay [1] and in assay [2] was less than 1 µM throughout.
Regarding `CC(=O)Nc1cc(C(=O)NCc2cnc(OCC(F)(F)F)c(C)c2)cc(C)n1` [Example 371, 2-acetamido-6-methyl-N-((5-methyl-6-(2,2,2-trifluoroethoxy)pyridin-3-yl)methyl)isonicotinamide], the IC50 in assay [1] and in assay [2] was less than 1 µM in each case.
As for `CC(=O)Nc1cc(C(=O)NCc2cnc(OCC(F)(F)C(F)F)c(C)c2)cc(C)n1` [Example 944, 2-acetamido-6-methyl-N-((5-methyl-6-(2,2,3,3-tetrafluoropropoxy)pyridin-3-yl)methyl)isonicotinamide], the 50% inhibitory concentration (IC50) in assay [1] and in assay [2] was less than 1 µM throughout.
Regarding `COc1nc(OCC(F)(F)F)ccc1CNC(=O)c1cc(C)nc(NC(C)=O)c1` [Example 241, 2-acetamido-N-((2-methoxy-6-(2,2,2-trifluoroethoxy)pyridin-3-yl)methyl)-6-methylisonicotinamide], the IC50 in assay [1] and in assay [2] was less than 1 µM each time.
As to `Cc1cc(C(C)NC(=O)c2ccnc(NC(=O)C3CC3)n2)cnc1OCC(F)F` (single isomer, unassigned) [Example 558, 2-(cyclopropanecarboxamido)-N-(1-(6-(2,2-difluoroethoxy)-5-methylpyridin-3-yl)ethyl)pyrimidine-4-carboxamide], the half-maximal inhibitory concentration (IC50) in assay [1] and in assay [2] was less than 1 µM in each case.
With `Cc1cc(C(=O)NC(C)c2cnc(OCC(F)(F)F)c(C)c2)nc(NC(=O)C(C)C)n1` (single isomer, unassigned) [Example 229, 2-isobutyramido-6-methyl-N-(1-(5-methyl-6-(2,2,2-trifluoroethoxy)pyridin-3-yl)ethyl)pyrimidine-4-carboxamide], the IC50 in assay [1] and in assay [2] was less than 1 µM in each case.
Turning to `CCC(=O)Nc1cc(C(=O)NCc2ccc(OC(F)(F)F)c(C)c2)ccn1` [Example 805, N-(3-methyl-4-(trifluoromethoxy)benzyl)-2-propionamidoisonicotinamide], the IC50 in assay [1] and in assay [2] was less than 1 µM in each case.
Take `Cc1cc(C(=O)NCc2ccc(OCC(F)(F)F)c(C)c2)cc(NC(=O)C(C)C)n1` [Example 794, 2-isobutyramido-6-methyl-N-(3-methyl-4-(2,2,2-trifluoroethoxy)benzyl)isonicotinamide]: the IC50 in assay [1] and in assay [2] was less than 1 µM throughout.
For `O=C(NCc1cnc(OCC(F)(F)F)c(Br)c1)c1ccnc(NC(=O)C2CC2)n1` [Example 898, N-((5-bromo-6-(2,2,2-trifluoroethoxy)pyridin-3-yl)methyl)-2-(cyclopropanecarboxamido)pyrimidine-4-carboxamide], the 50% inhibitory concentration (IC50) in assay [1] and in assay [2] was less than 1 µM each time.
With `Cc1cc(CNC(=O)c2ccnc(NC(=O)C3CC3)c2)cnc1OCC(F)(F)C(F)F` [Example 942, 2-(cyclopropanecarboxamido)-N-((5-methyl-6-(2,2,3,3-tetrafluoropropoxy)pyridin-3-yl)methyl)isonicotinamide], the concentration for half-maximal inhibition (IC50) in assay [1] and in assay [2] was less than 1 µM each time.
As for `Cc1cc(CNC(=O)c2ccnc(NC(=O)C3CC3)c2)cnc1OCC(F)(F)F` [Example 369, 2-(cyclopropanecarboxamido)-N-((5-methyl-6-(2,2,2-trifluoroethoxy)pyridin-3-yl)methyl)isonicotinamide], the IC50 in assay [1] and in assay [2] was less than 1 µM each time.
Consider `COc1nc(OCC(F)(F)F)ccc1CNC(=O)c1ccnc(NC(=O)C2CC2)c1` [Example 147, 2-(cyclopropanecarboxamido)-N-((2-methoxy-6-(2,2,2-trifluoroethoxy)pyridin-3-yl)methyl)isonicotinamide], for which the IC50 in assay [1] and in assay [2] was less than 1 µM throughout.
`CC(=O)Nc1cc(C(=O)NCc2ccc(OC(F)(F)F)c(C)c2)ccn1` [Example 804, 2-acetamido-N-(3-methyl-4-(trifluoromethoxy)benzyl)isonicotinamide]: the IC50 in assay [1] and in assay [2] was less than 1 µM in each case.

The values above are taken from patent publication US9302991B2, “Arylamide derivatives as TTX-S blockers” (RaQualia Pharma Inc., priority 2010, dated 2016).
